Source: BindingDB's records for patent US20230285340 (Theravance Biopharma R&D Ip, 2023)

What follows are molecules tested against Neprilysin/Angiotensin-converting enzyme (Homo sapiens, UniProt P08473+P12821) (assay: Enzyme Inhibition Assays (Assay 1)).

Row | Ki | SMILES
1 | 0.0126 to 0.1 µM | CC(O)(CN(Cc1ccc(-c2ccccc2)cc1)NC(=O)C(=O)O)C(=O)O (stereo unspecified) [US20230285340, Example 12]
2 | 0.00126 to 0.01 µM | O=C(O)C(=O)NN(Cc1ccc(-c2cccc(Cl)c2)cc1)C[C@@H](O)C(=O)O [US20230285340, Example 13]
3 | 0.00126 to 0.01 µM | CCOC(=O)C(=O)NN(Cc1ccc(-c2cc(Cl)ccc2F)cc1)C[C@@H](O)C(=O)O [US20230285340, Example 14F]
4 | 0.0126 to 0.1 µM | CC(C)(c1ccc(-c2ccccc2)cc1)[C@H](C[C@@H](O)C(=O)O)NC(=O)C(=O)O [US20230285340, Example 15]
5 | 0.00126 to 0.01 µM | CC(C)(c1ccc(-c2ccccc2)cc1)[C@H](C[C@@H](CO)C(=O)O)NC(=O)C(=O)O [US20230285340, Example 16]

More lines, now with the values behind:

Row | SMILES | Ki
6 | CC(C)OC(=O)C(=O)N[C@H](Cc1ccc(-c2cccc(Cl)c2)cc1)C[C@@H](O)C(=O)O [US20230285340, Example 2G] | 0.00126 to 0.01 µM
7 | CC(C)COC(=O)[C@H](O)C[C@@H](Cc1ccc(-c2cccc(Cl)c2)cc1)NC(=O)C(=O)O [US20230285340, Example 2I] | 0.00126 to 0.01 µM
8 | CC(C)OC(=O)[C@H](O)C[C@@H](Cc1ccc(-c2cccc(Cl)c2)cc1)NC(=O)C(=O)O [US20230285340, Example 2J] | 0.0126 to 0.1 µM
9 | O=C(O)C(=O)N[C@H](Cc1ccc(-c2ccccc2)cc1Cl)C[C@@H](O)C(=O)O [US20230285340, Example 4] | 0.00126 to 0.01 µM
10 | C[C@@](CO)(C[C@@H](Cc1ccc(-c2ccccc2)cc1)NC(=O)C(=O)O)C(=O)O [US20230285340, Example 9A] | 0.00126 to 0.01 µM
11 | C[C@@](CO)(C[C@@H](Cc1ccc(-c2cccc(F)c2)cc1)NC(=O)C(=O)O)C(=O)O [US20230285340, Example 10] | 0.00126 to 0.01 µM
